Patent publication US20150133426A1, “SUBSTITUTED PYRROLOPYRIMIDINES” (BAYER PHARMA AKTIENGESELLSCHAFT, priority 2012, published 2015)

Biological target: T1, human full-length MKNK1 (Homo sapiens, UniProt Q9BUB5, T385D)
T1 construct: purchased Carna Biosciences 02-145; host or cells: insect cells, baculovirus expression system
Experiment: MKNK1 kinase high ATP assay (TR-FRET)
Assay type: biochemical
Settings: high ATP (2 mM), 15 min preincubation with enzyme, GST-MKNK1 (T344D)
Outline: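 GST-tagged full-length human MKNK1 (aa 1-424, T344D), baculovirus-expressed, preincubated 15 min with compound, then reacted 30 min at 22 °C with 2 mM ATP and 0.06 µM biotinylated peptide (final).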

T1 sequence (Q9BUB5 1-424 isoform Q9BUB5-2 T344D): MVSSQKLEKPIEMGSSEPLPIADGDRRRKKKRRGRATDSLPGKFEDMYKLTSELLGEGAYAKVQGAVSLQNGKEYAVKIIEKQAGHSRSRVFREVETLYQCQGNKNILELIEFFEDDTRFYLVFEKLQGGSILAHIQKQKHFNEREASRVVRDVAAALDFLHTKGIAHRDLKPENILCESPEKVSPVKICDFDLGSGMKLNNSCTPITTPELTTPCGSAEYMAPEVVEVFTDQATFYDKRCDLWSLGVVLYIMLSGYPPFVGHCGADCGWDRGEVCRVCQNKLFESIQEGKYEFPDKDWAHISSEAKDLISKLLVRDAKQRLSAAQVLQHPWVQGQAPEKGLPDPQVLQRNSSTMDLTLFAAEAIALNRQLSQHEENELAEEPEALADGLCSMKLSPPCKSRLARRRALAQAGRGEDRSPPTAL

| Compound | IC50 |
| --- | --- |
| CS(=O)(=O)CCCNC(=O)C1CCc2[nH]c3ncnc(Nc4cccc5c4CNC5=O)c3c2C1 (racemic) [Example 81, (RS)—N-[3-(Methylsulfonyl)propyl]-4-[(1-oxo-2,3-dihydro-1H-isoindol-4-yl)amino]-6,7,8,9-tetrahydro-5H-pyrimido[4,5-b]indole-6-carboxamide] | 1270 nM |
| CS(=O)(=O)CCCNC(=O)C1CCc2[nH]c3ncnc(Nc4ccc5[nH]ncc5c4)c3c2C1 (racemic) [Example 14, (RS)-4-(1H-Indazol-5-ylamino)-N-[3-(methylsulfonyl)propyl]-6,7,8,9-tetrahydro-5H-pyrimido[4,5-b]indole-6-carboxamide] | 8 nM |
| CC(C)Oc1cc2[nH]ncc2cc1Nc1ncnc2[nH]c3c(c12)CC(C(=O)NCCCS(C)(=O)=O)CC3 (racemic) [Example 230, (RS)—N-[3-(Methylsulfonyl)propyl]-4-{[6-(propan-2-yloxy)-1H-indazol-5-yl]amino}-6,7,8,9-tetrahydro-5H-pyrimido[4,5-b]indole-6-carboxamide] | 1 nM |
| c1nc(Nc2ccc3[nH]ncc3c2)c2c3c([nH]c2n1)CCC1(C3)OCCO1 [Example 27, N-(1H-Indazol-5-yl)-5′,7′,8′,9′-tetrahydrospiro[1,3-dioxolane-2,6′-pyrimido[4,5-b]indol]-4′-amine] | 51 nM |
| CS(=O)(=O)CCCNC(=O)C1CCc2[nH]c3ncnc(Nc4ccccc4OC4CCOC4)c3c2C1 (racemic) [Example 167, (RS)—N-[3-(Methylsulfonyl)propyl]-4-{[2-(tetrahydrofuran-3-yloxy)phenyl]amino}-6,7,8,9-tetrahydro-5H-pyrimido[4,5-b]indole-6-carboxamide] | 70 nM |
| CC(C)NC(=O)C1CCc2[nH]c3ncnc(N4CCc5ccccc54)c3c2C1 (racemic) [Example 208, (RS)-4-(2,3-Dihydro-1H-indol-1-yl)-N-(propan-2-yl)-6,7,8,9-tetrahydro-5H-pyrimido[4,5-b]indole-6-carboxamide] | 2750 nM |
| CCOC(=O)C1CCc2[nH]c3ncnc(Nc4ccccc4OC4CCCC4)c3c2C1 (racemic) [Example 170, (RS)-Ethyl 4-{[2-(cyclopentyloxy)phenyl]amino}-6,7,8,9-tetrahydro-5H-pyrimido[4,5-b]indole-6-carboxylate] | 1900 nM |
| CC(C)Oc1cc(F)ccc1Nc1ncnc2[nH]c3c(c12)CCC3 [Example 70, N-(4-Fluoro-2-isopropoxyphenyl)-5,6,7,8-tetrahydrocyclopenta[4,5]pyrrolo[2,3-d]pyrimidin-4-amine] | 48 nM |
| Clc1ccc2c(c1)CCN2c1ncnc2[nH]c3c(c12)CCCC3 [Example 122] | 4290 nM |
| COCC1(OC)CCc2[nH]c3ncnc(Nc4ccc(F)cc4OC4CCCC4)c3c2C1 (racemic) [Example 134] | 1650 nM |
| COc1cc(F)ccc1Nc1ncnc2[nH]c3c(c12)CC(C(=O)NCCCS(C)(=O)=O)CC3 (racemic) [Example 37, (RS)-4-[(4-Fluoro-2-methoxyphenyl)amino]-N-[3-(methylsulfonyl)propyl]-6,7,8,9-tetrahydro-5H-pyrimido[4,5-b]indole-6-carboxamide] | 145 nM |
| O=C(O)C1CCc2[nH]c3ncnc(Nc4ccccc4N4CCOCC4)c3c2C1 (racemic) [Example 186, (RS)-4-{[2-(Morpholin-4-yl)phenyl]amino}-6,7,8,9-tetrahydro-5H-pyrimido[4,5-b]indole-6-carboxylic acid] | 911 nM |
| CC(C)Oc1ccc(Br)cc1Nc1ncnc2[nH]c3c(c12)CCCC3 [Example 127] | 6270 nM |
| COc1cc2[nH]ncc2cc1Nc1ncnc2[nH]c3c(c12)CC(C(=O)NCCCS(C)(=O)=O)CC3 (racemic) [Example 163, (RS)-4-[(6-Methoxy-1H-indazol-5-yl)amino]-N-[3-(methylsulfonyl)propyl]-6,7,8,9-tetrahydro-5H-pyrimido[4,5-b]indole-6-carboxamide] | 4 nM |
| O=C(Nc1ccccc1)C1CCc2[nH]c3ncnc(Nc4ccc5[nH]ncc5c4)c3c2C1 (racemic) [Example 16, (RS)-4-(1H-Indazol-5-ylamino)-N-phenyl-6,7,8,9-tetrahydro-5H-pyrimido[4,5-b]indole-6-carboxamide] | 15 nM |
| COc1ccc(F)cc1Nc1ncnc2[nH]c3c(c12)CC(C(=O)NC(C)C)CC3 (racemic) [Example 195, (RS)-4-[(5-Fluoro-2-methoxyphenyl)amino]-N-(propan-2-yl)-6,7,8,9-tetrahydro-5H-pyrimido[4,5-b]indole-6-carboxamide] | 123 nM |
| CCOC(=O)C1CCc2[nH]c3ncnc(Nc4cc5cn[nH]c5cc4OC)c3c2C1 (racemic) [Example 179, (RS)-Ethyl 4-[(6-methoxy-1H-indazol-5-yl)amino]-6,7,8,9-tetrahydro-5H-pyrimido[4,5-b]indole-6-carboxylate] | 13 nM |
| CS(=O)(=O)CCCNC(=O)C1CCc2[nH]c3ncnc(Oc4ccc5[nH]ncc5c4)c3c2C1 (racemic) [Example 56, (RS)-4-(1H-Indazol-5-yloxy)-N-[3-(methylsulfonyl)propyl]-6,7,8,9-tetrahydro-5H-pyrimido[4,5-b]indole-6-carboxamide] | 226 nM |
| CCOc1cc(Cl)ccc1Nc1ncnc2[nH]c3c(c12)CC(C(=O)NCCCS(C)(=O)=O)CC3 (racemic) [Example 165, (RS)-4-[(4-Chloro-2-ethoxyphenyl)amino]-N-[3-(methylsulfonyl)propyl]-6,7,8,9-tetrahydro-5H-pyrimido[4,5-b]indole-6-carboxamide] | 86 nM |
| COCC1(OC)CCc2[nH]c3ncnc(Nc4cc5[nH]c(=O)[nH]c5cc4Cl)c3c2C1 (racemic) [Example 131] | 5700 nM |
| COc1ccc(F)cc1Nc1ncnc2[nH]c3c(c12)CC(C(=O)NC1CC1)CC3 (racemic) [Example 197, (RS)—N-Cyclopropyl-4-[(5-fluoro-2-methoxyphenyl)amino]-6,7,8,9-tetrahydro-5H-pyrimido[4,5-b]indole-6-carboxamide] | 188 nM |
| CCNC(=O)C1CCc2[nH]c3ncnc(Nc4ccccc4N4CCOCC4)c3c2C1 (racemic) [Example 201, (RS)—N-Ethyl-4-{[2-(morpholin-4-yl)phenyl]amino}-6,7,8,9-tetrahydro-5H-pyrimido[4,5-b]indole-6-carboxamide] | 215 nM |
| CS(=O)(=O)CCCNC(=O)C1CCc2[nH]c3ncnc(Nc4cccc(-n5cnnn5)c4)c3c2C1 (racemic) [Example 47, (RS)—N-[3-(Methylsulfonyl)propyl]-4-{[3-(1H-tetrazol-1-yl)phenyl]amino}-6,7,8,9-tetrahydro-5H-pyrimido[4,5-b]indole-6-carboxamide] | 1310 nM |
| O=C(O)C1CCc2[nH]c3ncnc(N4CCc5ccccc54)c3c2C1 (racemic) [Example 185, (RS)-4-(2,3-Dihydro-1H-indol-1-yl)-6,7,8,9-tetrahydro-5H-pyrimido[4,5-b]indole-6-carboxylic acid] | 8990 nM |
| c1nc(Nc2ccc3[nH]ncc3c2)c2c3c([nH]c2n1)CCCCC3 [Example 3, N-(1H-Indazol-5-yl)-5,6,7,8,9,10-hexahydrocyclohepta[4,5]pyrrolo[2,3-d]pyrimidin-4-amine] | 45 nM |
| Cn1c2c(c3c(Nc4ccc5[nH]ncc5c4)ncnc31)CC(C(=O)NCCCS(C)(=O)=O)CC2 (racemic) [Example 26, (RS)-4-(1H-Indazol-5-ylamino)-9-methyl-N-[3-(methylsulfonyl)propyl]-6,7,8,9-tetrahydro-5H-pyrimido[4,5-b]indole-6-carboxamide] | 1740 nM |
